Here are results for two compounds from patent publication US4426390A, “Novel β-lactam compounds, process for producing thereof, and use thereof as medicines” (Sanraku-Ocean Co., Ltd., priority 1980, dated 1984).

As usually defined, the MIC is the lowest concentration found to suppress growth.

Holding throughout (test): MIC by agar dilution method
Holding throughout (type): cell-based
In general terms: Agar dilution tests growth on a series of plates holding different concentrations.

One assay has as its system Alcaligenes Faecolis A1. As to the method: (§1) The MIC is measured by an agar dilution method based on the standard method of the Japanese Society of Chemotherapy (Japanese Society of Chemotherapy: The Revised Method of Determination of MIC Values, Chemotherapy 22, 1126-1128, […]). Specifically, the antibiotic is serially diluted with a 1/50 M phosphate buffer at a pH of 7.3 to prepare a twofold dilution series. One milliliter of each dilution and 9 ml of an agar medium (Heart Infusion Agar; a product of Difco Laboratories) are mixed and allowed to solidify in a Petri dish having a diameter of 9 cm. One loopful of the stock culture of the test microbe is inoculated in trypto-soy buillon (a product of Eiken Kagaku Co., Ltd.) and incubated at 37° C. for 18 hours. The resulting culture broth is diluted to a concentration of about 10^6 cells/ml with physiological saline and inoculated on the agar plate by means of a microplanter.

In assay [1] the test system is Bacillus subtillis ATCC 6633. Conditions: ATCC6633; Bacillus subtillis ATCC 6633; agar dilution, 37° C., 18 hours; read-out: MIC. On the procedure: as §1
Assay [2] deals with Citrobacter Freundii GN346. Conditions: 37° C., 18 hours. As to the method: as §1
The test system of a further assay is Comamonas terrigena B996. Conditions: 37° C., 18 hours. As to the method: as §1
The next assay has as its system E. coli RGN823. Conditions: Escherichia coli, 37° C., 18 hours. On the procedure:
as §1

The next assay concerns Ent. cloacae 45. Conditions: Enterobacter cloacae, 37° C., 18 hours. As to the method:
as §1

The subject of another assay is Ent. sp. E8. On the procedure: as §1
Assay [3] has as its system Enterobacter aerogenes E19. Conditions: Klebsiella aerogenes, 37° C., 18 hours. On the procedure:
as §1

For another assay, the system named is Escherichia coli K-12. As to the method: as §1
The subject of assay [4] is Klebsiella pneumoniae K13. Conditions: 37° C., 18 hours. On the procedure: as §1
The subject of a further assay is P. rettgeri P7. Conditions: Providencia rettgeri. As to the method: as §1
Another assay relates to P. sp. P22. Conditions: 37° C., 18 hours. On the procedure:
as §1

The next assay deals with P. vulgaris GN76. Conditions: Proteus vulgaris, 37° C., 18 hours. On the procedure: as §1
In a further assay the test system is Proteus mirabilis P6. On the procedure: as §1
The subject of a further assay is Providencia sp. P8. As to the method: as §1
For the next assay, the system named is Ps. aeruginosa NCTC10490. Conditions: Pseudomonas aeruginosa, 37° C., 18 hours. On the procedure: as §1
Assay [5] concerns Pseudomonas aenginosa IFO3445. Conditions: 37° C., 18 hours. On the procedure:
as §1

Another assay concerns S. aureus Russell. Conditions: Staphylococcus aureus; S. aureus Russell; agar dilution, 37° C., 18 hours; read-out: MIC. On the procedure: as §1
The next assay deals with S. aureus Smith. Conditions: Staphylococcus aureus, 37° C., 18 hours. As to the method: as §1
A further assay concerns S. epidermidis. Conditions: Staphylococcus epidermidis, 37° C., 18 hours. As to the method: as §1
In another assay the test system is Sarcina lutea S19. Conditions: Micrococcus luteus, 37° C., 18 hours. As to the method:
as §1

A further assay concerns Ser. marcesceus T55. Conditions: 37° C., 18 hours. On the procedure:
as §1

The next assay concerns Serratia marcesceus S18. Conditions: 37° C., 18 hours. As to the method: as §1
The test system of assay [6] is Staphylococcus aureus 209P. Conditions: 37° C., 18 hours. As to the method:
as §1

In brackets after ≈: the same amount, converted by molar mass. Where two headings read alike, the source gives them in different places. A value given as a limit tells only on which side of the number the result lay.

Consider `CC(O)[C@@H]1C(=O)N2C(C(=O)O)=C(SCCNC(=O)CCNC(=O)C(O)C(C)(C)CO)C[C@H]12` (relative stereo) [OA-6129B1], for which the minimum inhibitory concentration (MIC) with Alcaligenes Faecolis A1 (Alcaligenes Faecolis A1, agar dilution, 37° C., 18 hours, read-out: MIC) turned out to be 0.2 µg/mL (≈ 0.422 µM); in [1] it was 0.05 µg/mL (≈ 0.106 µM); in [2], 6.25 µg/mL (≈ 13.2 µM); against Comamonas terrigena B996, 0.012 µg/mL (≈ 0.0253 µM); with E. coli RGN823, 0.39 µg/mL (≈ 0.824 µM); in the assay with Ent. cloacae 45, 6.25 µg/mL (≈ 13.2 µM). The MIC in the assay with Ent. sp. E8 (Ent. sp. E8, agar dilution, 37° C., 18 hours, read-out: MIC) was 0.39 µg/mL (≈ 0.824 µM); in [3] it was 3.13 µg/mL (≈ 6.61 µM); with Escherichia coli K-12 (K12, Escherichia coli K-12, agar dilution, 37° C., 18 hours, read-out: MIC), 0.39 µg/mL (≈ 0.824 µM); in [4], more than 50 µg/mL; in the assay on P. rettgeri P7 (P. rettgeri P7, agar dilution, 37° C., 18 hours, read-out: MIC), 0.78 µg/mL (≈ 1.65 µM); against P. sp. P22, more than 50 µg/mL. For the same compound, the MIC with P. vulgaris GN76 was 50 µg/mL (≈ 106 µM); in the assay with Proteus mirabilis P6 (Proteus mirabilis P6, agar dilution, 37° C., 18 hours, read-out: MIC), 0.78 µg/mL (≈ 1.65 µM); in the assay with Providencia sp. P8 (Providencia sp. P8, agar dilution, 37° C., 18 hours, read-out: MIC), 0.2 µg/mL (≈ 0.422 µM); in the assay with Ps. aeruginosa NCTC10490, more than 50 µg/mL; in [5], more than 50 µg/mL; with S. aureus Russell, 0.78 µg/mL (≈ 1.65 µM). Besides, the MIC in the assay with S. aureus Smith turned out to be 1.56 µg/mL (≈ 3.29 µM); against S. epidermidis, 0.78 µg/mL (≈ 1.65 µM); with Sarcina lutea S19, 0.1 µg/mL (≈ 0.211 µM); with Ser. marcesceus T55 it was 12.5 µg/mL (≈ 26.4 µM); with Serratia marcesceus S18, 6.25 µg/mL (≈ 13.2 µM); in assay [6], 0.1 µg/mL (≈ 0.211 µM).

For `Cc1nnc(SCC2=C(C(=O)O)N3C(=O)[C@@H](NC(=O)Cn4cnnn4)[C@H]3SC2)s1` [CEZ, reference compound], the MIC against Alcaligenes Faecolis A1 (Alcaligenes, 18 h) was 3.13 µg/mL (≈ 6.89 µM); in assay [1], 0.1 µg/mL (≈ 0.22 µM); in [2], more than 400 µg/mL; in the assay with Comamonas terrigena B996, 0.05 µg/mL (≈ 0.11 µM); in the assay on E. coli RGN823 it was 1.56 µg/mL (≈ 3.43 µM); against Ent. cloacae 45, more than 400 µg/mL. Besides, the MIC is 3.13 µg/mL (≈ 6.89 µM) against Ent. sp. E8 (18 h); more than 400 µg/mL in [3]; 0.78 µg/mL (≈ 1.72 µM) in the assay with Escherichia coli K-12 (Escherichia coli, K12, 18 h); 25 µg/mL (≈ 55 µM) in assay [4]; 3.13 µg/mL (≈ 6.89 µM) in the assay on P. rettgeri P7 (P7, 18 h); more than 400 µg/mL against P. sp. P22. Also, the MIC in the assay with P. vulgaris GN76 was more than 400 µg/mL; against Proteus mirabilis P6 (Proteus mirabilis, P6, 18 h) it was 3.13 µg/mL (≈ 6.89 µM); with Providencia sp. P8 (Providencia, SP.P8, 18 h), 1.56 µg/mL (≈ 3.43 µM); in the assay on Ps. aeruginosa NCTC10490, more than 400 µg/mL; in assay [5], more than 400 µg/mL; in the assay with S. aureus Russell, 0.2 µg/mL (≈ 0.44 µM). Also, the MIC in the assay on S. aureus Smith is 0.2 µg/mL (≈ 0.44 µM); against S. epidermidis it was 0.2 µg/mL (≈ 0.44 µM); against Sarcina lutea S19, 0.39 µg/mL (≈ 0.858 µM); with Ser. marcesceus T55, more than 400 µg/mL; in the assay with Serratia marcesceus S18, more than 400 µg/mL; in [6], 0.1 µg/mL (≈ 0.22 µM).
